test system: NO production in BV-2 cells [NO 생성; BV-2 세포]; test: Nitric oxide (NO) quantification (nitrite, Griess reaction) in LPS-activated BV-2 cells; assay type: cell-based; settings: Mus musculus, BV-2, 24 h, 20 μM, LPS 0.2 ㎍/mL, 24 h co-treatment, nitrite by Griess at 540 nm

Structure (SMILES)	activity at 20 µM [%]
CSc1nc(NCc2ccccc2)c2c(-c3ccccc3)nn(Cc3ccccc3)c2n1 [32a, 1-벤질-3-페닐-4-벤질아미노-6-(메틸티오)피라졸로[3,4-d]피리미딘]	53 ± 3
CSc1nc(NCc2ccc(F)cc2)c2c(-c3ccccc3)nn(Cc3ccccc3)c2n1 [32c, 1-벤질-3-페닐-4-(4-플루오로벤질)아미노-6-(메틸티오)피라졸로[3,4-d]피리미딘]	69 ± 8
C=CCNc1nc(SC)nc2c1c(-c1ccccc1)nn2Cc1ccccc1 [32d, 1-벤질-3-페닐-4-알릴아미노-6-(메틸티오)피라졸로[3,4-d]피리미딘]	46 ± 2
CSc1nc(Cl)c(C(=O)c2ccccc2)c(Cl)n1 [compound 29, 1-[(4,6-다이클로로-2-(메틸티오)피리미딘)-5-일]-페닐케톤]	35 ± 12
C=CCNc1nc(SC)nc2c1cnn2C [화합물 12i, 1-메틸-4-알릴아미노-6-(메틸티오)피라졸로[3,4-d]피리미딘]	101 ± 3
COc1ccccc1CNc1nc(SC)nc2c1cnn2C [화합물 12j, 1-메틸-4-(2-메톡시벤질)아미노-6-(메틸티오)피라졸로[3,4-d]피리미딘]	40 ± 5
COc1cccc(CNc2nc(SC)nc3c2cnn3C)c1 [화합물 12k, 1-메틸-4-(3-메톡시벤질)아미노-6-(메틸티오)피라졸로[3,4-d]피리미딘]	94 ± 5
CSc1nc(NCc2ccccc2C)c2cnn(C)c2n1 [화합물 12l, 1-메틸-4-(2-메틸벤질)아미노-6-(메틸티오)피라졸로[3,4-d]피리미딘]	69
CSc1nc(NCc2ccc(Cl)cc2)c2cnn(C)c2n1 [화합물 12m, 1-메틸-4-(4-클로로벤질)아미노-6-(메틸티오)피라졸로[3,4-d]피리미딘]	53 ± 6
CSc1nc(NC(C)c2ccccc2)c2cnn(C)c2n1 (stereo not drawn) [화합물 12o, 1-메틸-6-(메틸티오)-N-(1-페닐에틸)-1H-피라졸로[3,4-d]피리미딘-4-아민]	70 ± 5
C=CCn1ncc2c(NCc3ccccc3)nc(SC)nc21 [화합물 13a, 1-알릴-4-벤질아미노-6-(메틸티오)피라졸로[3,4-d]피리미딘]	15 ± 25
C=CCNc1nc(SC)nc2c1cnn2CC=C [화합물 13b, 1-알릴-4-알릴아미노-6-(메틸티오)피라졸로[3,4-d]피리미딘]	86 ± 9
C=CCn1ncc2c(NCCO)nc(SC)nc21 [화합물 13c, 1-알릴-4-(1-하이드록시에틸)아미노-6-(메틸티오)피라졸로[3,4-d]피리미딘]	77 ± 7
C=CCn1ncc2c(NCc3ccc(F)cc3)nc(SC)nc21 [화합물 13d, 1-알릴-4-(4-플루오로벤질)아미노-6-(메틸티오)피라졸로[3,4-d]피리미딘]	14 ± 39
C=CCn1ncc2c(NCc3ccccc3OC)nc(SC)nc21 [화합물 13e, N-(2-메톡시벤질)-1-알릴-6-(메틸티오)-1H-피라졸로[3,4-d]피리미딘-4-아민]	22.4 ± 0.4
C=CCn1ncc2c(NCc3ccc(Cl)cc3)nc(SC)nc21 [화합물 13f, N-(4-클로로벤질)-1-알릴-6-(메틸티오)-1H-피라졸로[3,4-d]피리미딘-4-아민]	11 ± 2.9
C=CCn1ncc2c(NCc3ccc(C)cc3)nc(SC)nc21 [화합물 13g, N-(4-메틸벤질)-1-알릴-6-(메틸티오)-1H-피라졸로[3,4-d]피리미딘-4-아민]	12.2 ± 3.8
C=CCn1ncc2c(NCc3ccccc3C)nc(SC)nc21 [화합물 13h, N-(2-메틸벤질)-1-알릴-6-(메틸티오)-1H-피라졸로[3,4-d]피리미딘-4-아민]	25 ± 0.3
C=CCn1ncc2c(NC(C)c3ccccc3)nc(SC)nc21 (stereo not drawn) [화합물 13i, 1-알릴-6-(메틸티오)-N-(1-페닐에틸)-1H-피라졸로[3,4-d]피리미딘-4-아민]	9.5 ± 3.8
C=CCn1ncc2c(NCc3cccc(OC)c3)nc(SC)nc21 [화합물 13j, N-(3-메톡시벤질)-1-알릴-6-(메틸티오)-1H-피라졸로[3,4-d]피리미딘-4-아민]	87 ± 0.2
C=CCn1ncc2c(NC(C)(C)CO)nc(SC)nc21 [화합물 13k, 2-(1-알릴-6-(메틸티오)-1H-피라졸로[3,4-d]피리미딘-4-일아미노)-2-메틸프로판-1-올]	15.9 ± 0.6

Structure (SMILES)	activity at 20 µM [%]
C=CCn1ncc2c(NCCCC)nc(SC)nc21 [화합물 13l, 1-알릴-N-뷰틸-6-(메틸티오)-1H-피라졸로[3,4-d]피리미딘-4-아민]	43.3 ± 1.1
C=CCn1ncc2c(NCc3ccc(OC)cc3)nc(SC)nc21 [화합물 13m, N-(4-메톡시벤질)-1-알릴-6-(메틸티오)-1H-피라졸로[3,4-d]피리미딘-4-아민]	8.6 ± 2.7
C=CCn1ncc2c(NCc3ccccn3)nc(SC)nc21 [화합물 13n, 1-알릴-6-(메틸티오)-N-((피리딘-2-일)메틸)-1H-피라졸로[3,4-d]피리미딘-4-아민]	17.6 ± 0.7
C=CCn1ncc2c(NCc3ccccc3Cl)nc(SC)nc21 [화합물 13o, N-(2-클로로벤질)-1-알릴-6-(메틸티오)-1H-피라졸로[3,4-d]피리미딘-4-아민]	17.5 ± 1.5
CSc1nc(NCc2ccccc2)c2cnn(CCNC(=O)OC(C)(C)C)c2n1 [화합물 14a, 1-(N-t-Boc-아미노에틸)-4-벤질아미노-6-(메틸티오)피라졸로[3,4-d]피리미딘]	58 ± 6
COc1ccccc1CNc1nc(SC)nc2c1cnn2CCNC(=O)OC(C)(C)C [화합물 14c, 1-(N-t-Boc-아미노에틸)-4-(2-메톡시벤질)아미노-6-(메틸티오)피라졸로[3,4-d]피리미딘]	54 ± 5
COc1cccc(CNc2nc(SC)nc3c2cnn3CCNC(=O)OC(C)(C)C)c1 [화합물 14d, 1-(N-t-Boc-아미노에틸)-4-(3-메톡시벤질)아미노-6-(메틸티오)피라졸로[3,4-d]피리미딘]	49 ± 12
CSc1nc(NCc2ccc(Cl)cc2)c2cnn(CCNC(=O)OC(C)(C)C)c2n1 [화합물 14e, 2-(4-(4-클로로벤질아미노)-6-(메틸티오)-1H-피라졸로[3,4-d]피리미딘-1-일)에틸카바메이트]	26.8 ± 0.1
CSc1nc(NC(C)(C)CO)c2cnn(CCNC(=O)OC(C)(C)C)c2n1 [화합물 14h, 2-(4-(1-하이드록시-2-메틸프로판-2-일아미노)-6-(메틸티오)-1H-피라졸로[3,4-d]피리미딘-1-일)에틸카바메이트]	78.9 ± 1.6
CCCCNc1nc(SC)nc2c1cnn2CCNC(=O)OC(C)(C)C [화합물 14i, 2-(4-(뷰틸아미노)-6-(메틸티오)-1H-피라졸로[3,4-d]피리미딘-1-일)에틸카바메이트]	54.2 ± 2.3
COc1ccc(CNc2nc(SC)nc3c2cnn3CCNC(=O)OC(C)(C)C)cc1 [화합물 14j, 2-(4-(4-메톡시벤질아미노)-6-(메틸티오)-1H-피라졸로[3,4-d]피리미딘-1-일)에틸카바메이트]	25.8 ± 3
CSc1nc(NCc2ccccn2)c2cnn(CCNC(=O)OC(C)(C)C)c2n1 [화합물 14k, 2-(4-((피리딘-2-일)메틸아미노)-6-(메틸티오)-1H-피라졸로[3,4-d]피리미딘-1-일)에틸카바메이트]	61 ± 0.8
CSc1nc(NCc2ccccc2Cl)c2cnn(CCNC(=O)OC(C)(C)C)c2n1 [화합물 14l, 2-(4-(2-클로로벤질아미노)-6-(메틸티오)-1H-피라졸로[3,4-d]피리미딘-1-일)에틸카바메이트]	24.2 ± 1.7
CSc1nc(NCc2ccccc2)c2cnn(-c3ccccc3)c2n1 [화합물 15a, 1-페닐-4-벤질아미노-6-(메틸티오)피라졸로[3,4-d]피리미딘]	53 ± 12
CSc1nc(NCCc2ccccc2)c2cnn(-c3ccccc3)c2n1 [화합물 15b, 1-페닐-4-(2-페닐에틸)아미노-6-(메틸티오)피라졸로[3,4-d]피리미딘]	72 ± 8
COc1ccc(CNc2nc(SC)nc3c2cnn3-c2ccccc2)cc1 [화합물 15c, 1-페닐-4-(4-메톡시벤질)아미노-6-(메틸티오)피라졸로[3,4-d]피리미딘]	61 ± 6
CSc1nc(NCCO)c2cnn(-c3ccccc3)c2n1 [화합물 15d, 1-페닐-4-(1-하이드록식에틸)아미노-6-(메틸티오)피라졸로[3,4-d]피리미딘]	68 ± 7
CSc1nc(NCc2ccc(F)cc2)c2cnn(-c3ccccc3)c2n1 [화합물 15e, 1-페닐-4-(4-플루오로벤질)아미노-6-(메틸티오)피라졸로[3,4-d]피리미딘]	46 ± 10
C=CCNc1nc(SC)nc2c1cnn2-c1ccccc1 [화합물 15f, 1-페닐-4-알릴아미노-6-(메틸티오)피라졸로[3,4-d]피리미딘]	60 ± 17
CSc1nc(NCCN2CCCCC2)c2cnn(-c3ccccc3)c2n1 [화합물 15g, 1-페닐-4-[2-(피페리딘-1-일)]에틸아미노-6-(메틸티오)피라졸로[3,4-d]피리미딘]	64 ± 7

same assay, conditions: Mus musculus, BV-2, 24 h, 30 μM, LPS 0.2 ㎍/mL, 24 h co-treatment, nitrite by Griess at 540 nm

Structure (SMILES)	activity at 30 µM [%]
CSc1nc(Cl)c2cn[nH]c2n1 [compound 4, 4-클로로-6-(메틸티오)피라졸로[3,4-d]피리미딘]	19 ± 4.1

— patent KR20130112248A, “피라졸로피리미딘 유도체 화합물, 이를 포함하는 산화질소 생성 억제용 조성물 및 뇌신경 질환 예방 및 치료용 약학적 조성물” (한국과학기술연구원, priority 2012, dated 2013)
